What was measured:
[1] = test system: Acinetobacter baumannii; assay: Molecular phenotypic antimicrobial susceptibility test (extraction/DNA purification prior to PCR); assay type: cell-based
Protocol: Detection of Molecular Phenotypic Antimicrobial Susceptibility. Disclosed herein are the methods for the detection of phenotypic antimicrobial susceptibility via molecular methods. The present invention describes how a specimen 100 with a known microbial load is incubated and then exposed to a panel of antimicrobial agents to determine sensitivity (prevention of growth) or resistance (allowance of growth) to the specific antimicrobial agents tested utilizing molecular methods. Sample Collection. Specimens 100 are collected from patients using sterile collection processes that are employed in routine clinical care. Specimens are transported to the testing facility in boric acid preservative. […] The specimens 100 are put through a pathogen identification process using PCR technology (e.g., using the first sample 104). The process for pathogen isolation includes steps of harvesting the pathogen (e.g., via centrifugation), isolating pathogen DNA via a DNA isolation and/or purification kit, and performing PCR on the pathogen DNA via PCR components (e.g., primers, enzymes, buffers) as would be known to the skilled artisan. Simultaneously, an additional aliquot of the same specimen (e.g., the second sample 108) is placed with liquid culture media and incubated for 4-6 hours. This aliquot is used for antimicrobial susceptibility testing if indicated based on the pathogen detection results. […] Specimens 100 with lower pathogen loads could also be utilized in the antibiotic susceptibility phase of testing with or without a longer incubation period. […] Antimicrobial solutions are prepared at known concentrations. The specific antimicrobials and their concentrations are selected based on the pathogen of interest and the described antimicrobial resistance breakpoints for that specimen pathogen and antimicrobial combination. These antimicrobials have been selected based on those commonly utilized by healthcare providers in routine clinical care for the specific type of suspected infection. The number and types of antimicrobials utilized can be customized based on the infection source, pathogen detected, patient-specific factors such as allergies or other health conditions (e.g., chronic kidney disease or concurrent medication use), or healthcare provider preferences such as antimicrobial availability or cost. The antimicrobial solutions are prepared in liquid culture media (such as Muller Hinton Broth) to achieve the desired antimicrobial concentration and are then stored at −80° C. until use. For a given specimen, each antimicrobial is tested at a single or multiple antimicrobial concentration(s) which is its established breakpoints for sensitivity. The antimicrobial solutions are prepared and plated out for each specific pathogen. This allows ease of use on the day of testing after defrosting the plate 112. Table 1, which illustrates the results of molecular phenotypic antimicrobial susceptibility testing when more than one organism is present in the source specimen, provides an example of an antimicrobial plate 112 prepared for this purpose. Of note, control wells containing only culture media are present on all plates 112. This allows for evaluation of pathogen load when no antimicrobial is present. Specimen Exposure to Antimicrobial Agents. The 1 mL aliquot of the specimen 100 previously mixed with culture media and incubated is obtained. Using optical density measurements as a guide, the specimen 100 is diluted to 0.5 McFarland. The specimen 100 is then placed into the previously prepared antimicrobial susceptibility testing plate 112. Each plate 112 is prepared for a single specimen 100 for a specified pathogen based on its detection. For example, if the specimen 100 has more than one pathogen detected that needs different antimicrobial concentrations for exposure due to different minimum inhibitory concentration breakpoints for one or more organisms, then more than one antimicrobial exposure plate 112 may be needed. […]

[2] = test system: S. aureus; assay: Molecular phenotypic antimicrobial susceptibility test with direct PCR (no extraction DNA purification step); assay type: cell-based, Staphylococcus aureus; details: for Molecular Antimicrobial Susceptibility Result: S. aureus isolate NR-46412 HIP13170, at sensitive breakpoint
Protocol: Detection of Molecular Phenotypic Antimicrobial Susceptibility. Disclosed herein are the methods for the detection of phenotypic antimicrobial susceptibility via molecular methods. The present invention describes how a specimen 100 with a known microbial load is incubated and then exposed to a panel of antimicrobial agents to determine sensitivity (prevention of growth) or resistance (allowance of growth) to the specific antimicrobial agents tested utilizing molecular methods.
Sample Collection. Specimens 100 are collected from patients using sterile collection processes that are employed in routine clinical care. Specimens are transported to the testing facility in boric acid preservative.
Preparation of the Specimens for Testing. […] The process for pathogen isolation includes steps of harvesting the pathogen (e.g., via centrifugation), isolating pathogen DNA via a DNA isolation and/or purification kit, and performing PCR on the pathogen DNA via PCR components (e.g., primers, enzymes, buffers) as would be known to the skilled artisan. […] This aliquot is used for antimicrobial susceptibility testing if indicated based on the pathogen detection results. […] Specimens 100 with lower pathogen loads could also be utilized in the antibiotic susceptibility phase of testing with or without a longer incubation period.
Preparation of Antimicrobial Susceptibility Testing Plates. Antimicrobial solutions are prepared at known concentrations. The specific antimicrobials and their concentrations are selected based on the pathogen of interest and the described antimicrobial resistance breakpoints for that specimen pathogen and antimicrobial combination. These antimicrobials have been selected based on those commonly utilized by healthcare providers in routine clinical care for the specific type of suspected infection. The number and types of antimicrobials utilized can be customized based on the infection source, pathogen detected, patient-specific factors such as allergies or other health conditions (e.g., chronic kidney disease or concurrent medication use), or healthcare provider preferences such as antimicrobial availability or cost.
The antimicrobial solutions are prepared in liquid culture media (such as Muller Hinton Broth) to achieve the desired antimicrobial concentration and are then stored at −80° C. until use. For a given specimen, each antimicrobial is tested at a single or multiple antimicrobial concentration(s) which is its established breakpoints for sensitivity. The antimicrobial solutions are prepared and plated out for each specific pathogen. […] This allows for evaluation of pathogen load when no antimicrobial is present.
Specimen Exposure to Antimicrobial Agents. The 1 mL aliquot of the specimen 100 previously mixed with culture media and incubated is obtained. Using optical density measurements as a guide, the specimen 100 is diluted to 0.5 McFarland.
Antimicrobial exposure plates are typically placed into an incubator for 12-16 hours.
Nucleic Acid Amplification of Antimicrobial Agent Exposed Pathogens. The antimicrobial exposure plate is removed after the period of incubation. The specimen then undergoes a purification or lysis step. For example, the specimen may undergo a purification step (e.g., magnetic bead-based or other separation protocol to isolate genetic material). In another example, the specimen may undergo a cell lysis step. For example, buffer (e.g., lysis buffer) may be added and incubated in the thermal cycler for preparation for direct PCR. Next, the specimen may undergo a polymerase chain reaction (PCR) testing protocol, whereby a semi-quantitative PCR method is utilized. This may be completed either with or without a specific extraction protocol step. The pathogens can be individually targeted and detected, or a universal genetic sequence can be utilized to detect the antimicrobial susceptibility of the specimen as a whole.

[3] = A. baumannii isolate 4, Ct at control (average) 18.061
[4] = A. baumannii isolate 4, at sensitive breakpoint
[5] = A. baumannii isolate 5, Ct at control (average) 18.191
[6] = A. baumannii isolate 5, at sensitive breakpoint

Substance	Ct at Sensitive Breakpoint [1, 3]	Molecular Antimicrobial Susceptibility Result [1, 4]	Ct at Sensitive Breakpoint [1, 5]	Molecular Antimicrobial Susceptibility Result [1, 6]	Molecular Antimicrobial Susceptibility Result [2]	Ct at Sensitive Breakpoint ([1]; A. baumannii isolate 1, Ct at control (average) 18.811)	Molecular Antimicrobial Susceptibility Result ([1]; A. baumannii isolate 1, at sensitive breakpoint)	Ct at Sensitive Breakpoint ([1]; A. baumannii isolate 2, Ct at control (average) 18.763)	Molecular Antimicrobial Susceptibility Result ([1]; A. baumannii isolate 2, at sensitive breakpoint)	Ct at Sensitive Breakpoint ([1]; A. baumannii isolate 3, Ct at control (average) 18.799)	Molecular Antimicrobial Susceptibility Result ([1]; A. baumannii isolate 3, at sensitive breakpoint)	Ct at Sensitive Breakpoint ([2]; S. aureus isolate NR-46412 HIP13170, Ct at control (average) 18.824)
Gentamicin	19.380	Sensitive (Antimicrobial wells with pathogen load detected below the control wells (typically >2 cycle thresholds later) may be reported as Sensitive)	19.399	Sensitive (Antimicrobial wells with pathogen load detected below the control wells (typically >2 cycle thresholds later) may be reported as Sensitive)	Resistant	–	–	–	–	–	–	–
Trimethoprim/Sulfamethoxazole [TMP/SMX]	23.297	Sensitive (Antimicrobial wells with pathogen load detected below the control wells (typically >2 cycle thresholds later) may be reported as Sensitive)	22.742	Sensitive (Antimicrobial wells with pathogen load detected below the control wells (typically >2 cycle thresholds later) may be reported as Sensitive)	Sensitive (Antimicrobial wells with pathogen load detected below the control wells (typically >2 cycle thresholds later) may be reported as Sensitive)	22.888	Sensitive (Antimicrobial wells with pathogen load detected below the control wells (typically >2 cycle thresholds later) may be reported as Sensitive)	22.916	Sensitive (Antimicrobial wells with pathogen load detected below the control wells (typically >2 cycle thresholds later) may be reported as Sensitive)	22.407	Sensitive (Antimicrobial wells with pathogen load detected below the control wells (typically >2 cycle thresholds later) may be reported as Sensitive)	28.63
